From ChEMBL document CHEMBL1201862, “PubChem BioAssay data set” (2004)
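Dose response: 5 concentrations. Exposure: 48 h. Format: 96-well plates. Endpoint: linear interpolation; highest concentration if not reached. GI50: concentration for 50% inhibition of growth.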 Active and inactive are the calls of the source. Cut-off read from the data, not from the text of the source: active = GI50 up to about 1.1 µM and inactive = higher.

Legend:
Assay in all cases: inhibition of tumour cell growth, NCI panel, 48 h
T47D = test system: T47D
UO-31 = test system: UO-31
SK-MEL-2 = test system: SK-MEL-2
SF-539 = test system: SF-539
SN12C = test system: SN12C
MDA-N = test system: MDA-N
DMS-273 = test system: DMS-273
HOP-92 = test system: HOP-92
M14 = test system: M14
NCI-H522 = test system: NCI-H522
SK-MEL-28 = test system: SK-MEL-28
HOP-18 = test system: HOP-18
SNB-19 = test system: SNB-19
CCRF-CEM = test system: CCRF-CEM
UACC-257 = test system: UACC-257
RXF 631 = test system: RXF 631
DMS-114 = test system: DMS-114
HCC 2998 = test system: HCC 2998
SF-295 = test system: SF-295
KM12 = test system: KM12
PC-3 = test system: PC-3
SK-OV-3 = test system: SK-OV-3
HT-29 = test system: HT-29
A549 = test system: A549
KM-20L2 = test system: KM-20L2
UACC-62 = test system: UACC-62
TK-10 = test system: TK-10
EKVX = test system: EKVX
LOX IMVI = test system: LOX IMVI
NCI-H226 = test system: NCI-H226
SW-620 = test system: SW-620
MDA-MB-435 = test system: MDA-MB-435
OVCAR-8 = test system: OVCAR-8
SF-268 = test system: SF-268
DLD-1 = test system: DLD-1
CAKI-1 = test system: CAKI-1
Hs-578T = test system: Hs-578T
OVCAR-3 = test system: OVCAR-3
OVCAR-5 = test system: OVCAR-5
COLO 205 = test system: COLO 205
U-251 = test system: U-251
NCI-H460 = test system: NCI-H460
K562 = test system: K562
OVCAR-4 = test system: OVCAR-4
LXFL 529 = test system: LXFL 529
SR = test system: SR
MCF7 = test system: MCF7
HL-60 = test system: HL-60
Malme-3M = test system: Malme-3M
NCI/ADR-RES = test system: NCI/ADR-RES
MOLT-4 = test system: MOLT-4
A498 = test system: A498
RPMI-8226 = test system: RPMI-8226
XF498 = test system: XF498
DU-145 = test system: DU-145
IGROV-1 = test system: IGROV-1
ACHN = test system: ACHN
SK-MEL-5 = test system: SK-MEL-5
HCT-116 = test system: HCT-116
SNB-78 = test system: SNB-78
MDA-MB-231 = test system: MDA-MB-231
SNB-75 = test system: SNB-75
HOP-62 = test system: HOP-62
786-0 = test system: 786-0
RXF 393 = test system: RXF 393
NCI-H23 = test system: NCI-H23
HCT-15 = test system: HCT-15
M19-MEL = test system: M19-MEL

COc1ncnc2c(NC3OC(CO)C(O)C3O)ncnc12 (stereo not given)
GI50 (T47D): 0.708 µM (active)
GI50 (UO-31): 0.984 µM (active)
GI50 (SK-MEL-2): 2.47 µM (inactive)
GI50 (SF-539): 0.246 µM (active)
GI50 (SN12C): 0.428 µM (active)
GI50 (MDA-N): 0.274 µM (active)
GI50 (DMS-273): 0.152 µM (active)
GI50 (HOP-92): 0.0156 µM (active)
GI50 (M14): 0.296 µM (active)
GI50 (NCI-H522): 1.53 µM (inactive)
GI50 (SK-MEL-28): 6.89 µM (inactive)
GI50 (HOP-18): < 0.01 µM (active)
GI50 (SNB-19): 1.16 µM (inactive)
GI50 (CCRF-CEM): < 0.0209 µM (active)
GI50 (UACC-257): 1.6 µM (inactive)
GI50 (RXF 631): 0.3 µM (active)
GI50 (DMS-114): 0.213 µM (active)
GI50 (HCC 2998): 1.26 µM (inactive)
GI50 (SF-295): 0.579 µM (active)
GI50 (KM12): 0.458 µM (active)
GI50 (PC-3): 0.493 µM (active)
GI50 (SK-OV-3): 0.525 µM (active)
GI50 (HT-29): 0.0685 µM (active)
GI50 (A549): 0.131 µM (active)
GI50 (KM-20L2): 0.407 µM (active)
GI50 (UACC-62): 0.299 µM (active)
GI50 (TK-10): 0.298 µM (active)
GI50 (EKVX): 0.596 µM (active)
GI50 (LOX IMVI): 0.0445 µM (active)
GI50 (NCI-H226): 0.335 µM (active)
GI50 (SW-620): 0.238 µM (active)
GI50 (MDA-MB-435): 0.578 µM (active)
GI50 (OVCAR-8): 0.329 µM (active)
GI50 (SF-268): 0.506 µM (active)
GI50 (DLD-1): 0.306 µM (active)
GI50 (CAKI-1): 0.267 µM (active)
GI50 (Hs-578T): 1.03 µM (active)
GI50 (OVCAR-3): 0.733 µM (active)
GI50 (OVCAR-5): 0.569 µM (active)
GI50 (COLO 205): 0.307 µM (active)
GI50 (U-251): 2.51 µM (inactive)
GI50 (NCI-H460): 0.279 µM (active)
GI50 (K562): 0.0306 µM (active)
GI50 (OVCAR-4): 0.713 µM (active)
GI50 (LXFL 529): 0.505 µM (active)
GI50 (SR): 0.0266 µM (active)
GI50 (MCF7): 0.041 µM (active)
GI50 (HL-60): 0.0414 µM (active)
GI50 (Malme-3M): 2.74 µM (inactive)
GI50 (NCI/ADR-RES): 0.417 µM (active)
GI50 (MOLT-4): 0.0471 µM (active)
GI50 (A498): 0.411 µM (active)
GI50 (RPMI-8226): 0.371 µM (active)
GI50 (XF498): 0.902 µM (active)
GI50 (DU-145): 0.407 µM (active)
GI50 (IGROV-1): 0.28 µM (active)
GI50 (ACHN): 0.201 µM (active)
GI50 (SK-MEL-5): 1.19 µM (inactive)
GI50 (HCT-116): 0.0541 µM (active)
GI50 (SNB-78): 0.668 µM (active)
GI50 (MDA-MB-231): 0.149 µM (active)
GI50 (SNB-75): 0.735 µM (active)
GI50 (HOP-62): 0.408 µM (active)
GI50 (786-0): 0.537 µM (active)
GI50 (RXF 393): 0.794 µM (active)
GI50 (NCI-H23): 0.24 µM (active)
GI50 (HCT-15): 0.179 µM

CC1=CC(C)(C)N=C2SC(c3ccc(N)cc3)=NN12
GI50 (UO-31): 28 µM (inactive)
GI50 (SF-539): > 100 µM (inactive)
GI50 (SN12C): > 95.9 µM (inactive)
GI50 (DMS-273): > 42.9 µM (inactive)
GI50 (HOP-92): 51.8 µM (inactive)
GI50 (M14): > 83.8 µM (inactive)
GI50 (NCI-H522): 58.6 µM (inactive)
GI50 (SK-MEL-28): > 100 µM (inactive)
GI50 (HOP-18): 1.47 µM (inactive)
GI50 (SNB-19): > 87.3 µM (inactive)
GI50 (CCRF-CEM): 27.9 µM (inactive)
GI50 (UACC-257): > 94 µM (inactive)
GI50 (M19-MEL): 63.1 µM (inactive)
GI50 (RXF 631): 50.7 µM (inactive)
GI50 (DMS-114): 32.7 µM (inactive)
GI50 (HCC 2998): > 100 µM (inactive)
GI50 (SF-295): > 91.8 µM (inactive)
GI50 (KM12): > 70.6 µM (inactive)
GI50 (SK-OV-3): > 100 µM (inactive)
GI50 (HT-29): 32.1 µM (inactive)
GI50 (A549): 51.9 µM (inactive)
GI50 (KM-20L2): 46.6 µM (inactive)
GI50 (UACC-62): 44.6 µM (inactive)
GI50 (TK-10): > 100 µM (inactive)
GI50 (EKVX): 24.9 µM (inactive)
GI50 (LOX IMVI): > 58.5 µM (inactive)
GI50 (NCI-H226): > 94.6 µM (inactive)
GI50 (SW-620): > 41 µM (inactive)
GI50 (OVCAR-8): 55.7 µM (inactive)
GI50 (SF-268): > 67.6 µM (inactive)
GI50 (DLD-1): 40.1 µM (inactive)
GI50 (CAKI-1): 61.8 µM (inactive)
GI50 (OVCAR-3): 58.2 µM (inactive)
GI50 (OVCAR-5): 49.7 µM (inactive)
GI50 (COLO 205): 42.8 µM (inactive)
GI50 (U-251): 59.8 µM (inactive)
GI50 (NCI-H460): 52.4 µM (inactive)
GI50 (K562): 32.6 µM (inactive)
GI50 (OVCAR-4): > 93.8 µM (inactive)
GI50 (LXFL 529): 31.6 µM (inactive)
GI50 (SR): 46.9 µM (inactive)
GI50 (HL-60): 18.1 µM (inactive)
GI50 (Malme-3M): > 100 µM (inactive)
GI50 (MOLT-4): 42.2 µM (inactive)
GI50 (A498): 63.4 µM (inactive)
GI50 (RPMI-8226): 21.1 µM (inactive)
GI50 (XF498): 50.9 µM (inactive)
GI50 (IGROV-1): > 100 µM (inactive)
GI50 (ACHN): 69.3 µM (inactive)
GI50 (SK-MEL-5): 70.3 µM (inactive)
GI50 (HCT-116): 41 µM (inactive)
GI50 (SNB-78): > 100 µM (inactive)
GI50 (SNB-75): > 52.5 µM (inactive)
GI50 (HOP-62): > 100 µM (inactive)
GI50 (786-0): 57.1 µM (inactive)
GI50 (RXF 393): > 100 µM (inactive)
GI50 (NCI-H23): > 81.1 µM (inactive)
GI50 (HCT-15): 31.6 µM
